A word on the IC50: it is the concentration needed to halve the response being measured. Higher therefore signals weaker potency in that assay. What is called EC50 is the concentration at which the effect is half-maximal. Read a high EC50 as weaker potency.

One experiment addresses Histone deacetylase. The experiment is described as follows: Inhibition of human HDAC in HeLa cells by flour de lys assay. In kind it is cell-based.
The subject of experiment [1] is DU-145. Description: Viability of human DU145 cells after 72 hrs by MTS assay. In kind it is functional, cell-based. Conditions: DU-145, 72 h. In general terms: Tetrazolium assays rely on reduction of a dye to a coloured formazan, in cell work by metabolically active cells.
For experiment [2], the system named is DU-145. Description: Viability of human DU145 cells after 72 hrs by trypan blue staining. The experiment is classed as functional, cell-based. To be noted: DU-145, 72 h.

Compound `COc1ccc(-c2cn(CCCCCC(=O)NO)nn2)cc1` registered an IC50 against Histone deacetylase of 2.09 nM.
Regarding `COc1ccccc1-c1cn(CCCCCC(=O)NO)nn1`, at Histone deacetylase, the IC50 is reported as 76 nM. This IC50 lies about 36-fold higher than the previous one.
Take `COc1cccc(OC)c1-c1cn(CCCCCC(=O)NO)nn1`: the IC50 against Histone deacetylase worked out at 315.9 nM.
On Histone deacetylase, `O=C(CCCCCn1cc(-c2cccc(-c3ccccc3)c2)nn1)NO` registered an IC50 of 1.9 nM.
Turning to `O=C(CCCCCCn1cc(-c2cccc(-c3ccccc3)c2)nn1)NO`, the IC50 at Histone deacetylase is listed as 5.4 nM.
Compound `O=C(CCCCCn1cc(-c2ccccc2-c2ccccc2)nn1)NO` returned an IC50 against Histone deacetylase of 162.6 nM.
Turning to `O=C(CCCCCn1cc(-c2ccc(-c3ccncc3)cc2)nn1)NO`, the EC50 came to 3070 nM in the experiment on DU-145 [1] and 4720 nM in the experiment on DU-145 [2]. The same compound gave an IC50 on Histone deacetylase of 2.3 nM.
In the case of `O=C(CCCCCCn1cc(-c2ccc(-c3ccncc3)cc2)nn1)NO`, at Histone deacetylase, the IC50 came to 16.6 nM.
On to `COc1ccc2cc(-c3cn(CCCCCCC(=O)NO)nn3)ccc2c1`, for which the EC50 in the experiment on DU-145 [1] amounted to 3990 nM; in the experiment with DU-145 [2], 7760 nM. Besides, the IC50 on Histone deacetylase amounted to 15.3 nM.
`O=C(CCCCCn1cc(-c2ccccc2)nn1)NO` came in with an IC50 against Histone deacetylase of 14.2 nM.
On the same count and under the same terms, the figure for `O=C(CCCCCCn1cc(-c2ccccc2)nn1)NO` is 9.6 nM; for `CN(C)c1ccc(-c2cn(CCCCCC(=O)NO)nn2)cc1` it is 4.3 nM.
At Histone deacetylase, `CN(C)c1ccc(-c2cn(CCCCCCC(=O)NO)nn2)cc1` had an IC50 of 106.1 nM.
In turn, `O=C(CCCCCn1cc(-c2cccnc2)nn1)NO` returned an IC50 against Histone deacetylase of 287.2 nM.
Compound `O=C(CCCCCn1cc(-c2ccc3cccnc3c2)nn1)NO` returned an IC50 against Histone deacetylase of 151.5 nM.
Regarding `O=C(CCCCCn1cc(-c2ccncc2)nn1)NO`, on Histone deacetylase, the IC50 came to 112.5 nM.
For `O=C(CCCCCCn1cc(-c2ccccn2)nn1)NO`, on Histone deacetylase, the IC50 worked out at 23.9 nM.
On Histone deacetylase, `Cc1ccccc1-c1cn(CCCCCC(=O)NO)nn1` yielded an IC50 of 17.4 nM.
Consider `COc1ccc2cc(-c3cn(CCCCCC(=O)NO)nn3)ccc2c1`, for which the EC50 stood at 2600 nM in the experiment on DU-145 [1] and 3950 nM in the experiment on DU-145 [2]. Moreover, the IC50 against Histone deacetylase worked out at 1.8 nM.
In turn, `O=C(CCCCCn1cc(-c2ccc(-c3ccccc3)cc2)nn1)NO` yielded an IC50 against Histone deacetylase of 52.4 nM.
Still for that read-out and setting: the figure for `O=C(CCCCCn1cc(-c2cccs2)nn1)NO` is 31.7 nM; for `Cc1ccc(-c2cn(CCCCCC(=O)NO)nn2)cc1` it is 43.4 nM; for `Cc1cccc(-c2cn(CCCCCC(=O)NO)nn2)c1` it is 31.9 nM.
Take `COc1cccc(-c2cn(CCCCCC(=O)NO)nn2)c1`: at Histone deacetylase, the IC50 is reported as 13.9 nM.
Turning to `O=C(CCCCCn1cc(-c2ccc3ccccc3n2)nn1)NO`, the results for the EC50 with DU-145 [1] and with DU-145 [2] were 2460 nM and 2250 nM, respectively. Also, at Histone deacetylase, the IC50 amounted to 2.1 nM.
In the case of `O=C(CCCCCCC(=O)Nc1ccccc1)NO` [VORINOSTAT], the EC50 in the experiment with DU-145 [2] is 2120 nM.

The values are drawn from ChEMBL document CHEMBL1157204, “Synthesis and structure-activity relationship of histone deacetylase (HDAC) inhibitors with triazole-linked cap group” (Bioorg Med Chem, 2008).
